# Test results published in patent publication US10519141B2, “Pyrimidine compound and pharmaceutical use thereof” (HANMI PHARM. CO., LTD., priority 2017, dated 2019).
# Key:
# VEGFR2 (KDR) kinase = molecular target: T1, VEGFR2 (KDR) kinase (Homo sapiens, UniProt P35968); experiment: Z'-LYTE kinase assay, inhibitory activity for VEGFR2 kinase; format: biochemical; conditions: compound concentration of 100 nM, read-out: Degree of inhibition (%)
# T1 construct: purchased Life Technologies
# Description: (§1) Inhibitory activity of the exemplary compounds among the foregoing compounds with respect to AXL, CLK2, VEGFR2 (KDR), NUAK1 kinases were measured. Z'-LYTE™ Kinase Assay Kit-Tyr 6 Peptide (Cat. No. PV4122, available from Life Technologies) for AXL, Z'-LYTE™ Kinase Assay Kit-Ser/Thr peptide 6 (Cat. No. PV3179, available from Life Technologies) for CLK2, Z'-LYTE™ Kinase Assay Kit (Cat. No. PV3190, available from Life Technologies) for VEGFR, and Adapta™ Universal Kinase Assay Kit (Cat. No. PV5099, available from Life Technologies) for NUAK1(ARK5) were used. The experiments were carried out by Life Technologies corporation.
# AXL kinase = molecular target: T2, AXL kinase (Homo sapiens, UniProt P30530); experiment: Z'-LYTE kinase assay, inhibitory activity for AXL kinase; format: biochemical; conditions: compound concentration of 100 nM, read-out: Degree of inhibition (%)
# T2 construct: purchased Life Technologies
# T2 sequence (P30530 26-894): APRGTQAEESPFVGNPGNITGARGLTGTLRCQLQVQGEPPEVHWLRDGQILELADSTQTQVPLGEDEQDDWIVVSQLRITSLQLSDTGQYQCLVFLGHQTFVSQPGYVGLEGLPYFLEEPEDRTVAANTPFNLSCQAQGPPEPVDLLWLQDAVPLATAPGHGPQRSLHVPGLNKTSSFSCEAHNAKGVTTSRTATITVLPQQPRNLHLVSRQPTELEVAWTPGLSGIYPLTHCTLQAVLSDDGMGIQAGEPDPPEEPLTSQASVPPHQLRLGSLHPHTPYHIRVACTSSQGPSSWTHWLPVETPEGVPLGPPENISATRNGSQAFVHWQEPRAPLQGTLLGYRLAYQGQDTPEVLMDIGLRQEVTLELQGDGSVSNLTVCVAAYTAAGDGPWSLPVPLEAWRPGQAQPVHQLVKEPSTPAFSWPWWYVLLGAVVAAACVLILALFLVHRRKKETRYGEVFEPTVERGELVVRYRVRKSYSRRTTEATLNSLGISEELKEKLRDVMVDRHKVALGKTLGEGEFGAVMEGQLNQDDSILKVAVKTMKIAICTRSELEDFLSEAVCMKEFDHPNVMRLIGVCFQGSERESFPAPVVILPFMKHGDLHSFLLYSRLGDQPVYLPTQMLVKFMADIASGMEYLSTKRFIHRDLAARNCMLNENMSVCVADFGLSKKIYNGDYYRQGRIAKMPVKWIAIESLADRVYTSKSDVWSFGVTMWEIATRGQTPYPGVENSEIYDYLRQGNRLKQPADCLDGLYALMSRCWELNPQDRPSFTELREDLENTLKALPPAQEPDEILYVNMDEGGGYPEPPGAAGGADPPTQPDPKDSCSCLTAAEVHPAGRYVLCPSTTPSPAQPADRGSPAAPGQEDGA
# Description: as §1
# NUAK1 (ARK5) kinase = molecular target: T3, NUAK1 (ARK5) kinase (Homo sapiens, UniProt O60285); experiment: Adapta Universal kinase assay, inhibitory activity for NUAK1 kinase; format: biochemical; conditions: compound concentration of 100 nM, read-out: Degree of inhibition (%)
# T3 construct: purchased Life Technologies
# T3 sequence (O60285 1-661): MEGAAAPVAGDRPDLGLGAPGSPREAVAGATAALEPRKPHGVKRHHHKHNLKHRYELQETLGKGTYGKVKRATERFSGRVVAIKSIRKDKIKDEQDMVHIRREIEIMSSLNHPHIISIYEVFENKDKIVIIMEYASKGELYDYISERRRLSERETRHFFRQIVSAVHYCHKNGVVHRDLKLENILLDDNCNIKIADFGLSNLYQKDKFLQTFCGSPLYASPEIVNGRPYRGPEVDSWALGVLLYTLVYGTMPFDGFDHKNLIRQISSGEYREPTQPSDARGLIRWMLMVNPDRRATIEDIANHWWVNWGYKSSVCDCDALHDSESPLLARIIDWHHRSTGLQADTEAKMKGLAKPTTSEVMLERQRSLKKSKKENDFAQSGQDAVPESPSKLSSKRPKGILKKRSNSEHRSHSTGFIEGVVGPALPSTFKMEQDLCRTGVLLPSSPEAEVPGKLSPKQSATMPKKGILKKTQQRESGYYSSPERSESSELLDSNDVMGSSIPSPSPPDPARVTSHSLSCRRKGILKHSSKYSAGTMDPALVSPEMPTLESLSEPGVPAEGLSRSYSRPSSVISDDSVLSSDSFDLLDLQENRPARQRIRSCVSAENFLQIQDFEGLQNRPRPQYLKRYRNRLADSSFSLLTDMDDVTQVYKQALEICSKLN
# Description: as §1
# CLK2 kinase = molecular target: T4, CLK2 kinase (Homo sapiens, UniProt P49760); experiment: Z'-LYTE kinase assay, inhibitory activity for CLK2 kinase; format: biochemical; conditions: compound concentration of 100 nM, read-out: Degree of inhibition (%)
# T4 construct: purchased Life Technologies
# T4 sequence (P49760 whole entry): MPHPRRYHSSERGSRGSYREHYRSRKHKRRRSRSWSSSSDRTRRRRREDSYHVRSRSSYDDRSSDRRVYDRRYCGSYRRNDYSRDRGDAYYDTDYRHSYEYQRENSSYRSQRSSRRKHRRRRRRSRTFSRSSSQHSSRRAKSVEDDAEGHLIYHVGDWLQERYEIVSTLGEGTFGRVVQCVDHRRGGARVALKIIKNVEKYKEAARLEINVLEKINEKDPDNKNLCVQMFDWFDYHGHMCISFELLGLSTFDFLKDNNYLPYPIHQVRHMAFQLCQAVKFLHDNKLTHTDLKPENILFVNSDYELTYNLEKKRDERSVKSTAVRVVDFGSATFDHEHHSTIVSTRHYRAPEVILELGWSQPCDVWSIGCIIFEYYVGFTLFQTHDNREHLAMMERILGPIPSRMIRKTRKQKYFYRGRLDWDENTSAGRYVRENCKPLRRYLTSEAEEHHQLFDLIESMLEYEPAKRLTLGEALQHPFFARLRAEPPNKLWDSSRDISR
# Description: as §1
# RS4-11 cell line = experiment: Inhibitory activity in cell growth, MTS test, RS4-11; format: cell-based; conditions: Homo sapiens, 72 h, incubation three days
# Description: RS4-11 cell line was incubated in an RPMI1640 culture medium (10% fetal bovine serum (FBS)) at a temperature of 37° C. The incubated cell line was prepared in an amount of 2.0×10^4 cells/100 μL, and then plated on 96-well plates. The RPMI1640 medium was serially diluted with the test compounds at a concentration in a range of 10 μM to 0.1 nM at a ratio of 1/10. Subsequently, incubation was performed thereon for three days. An MTS test was performed to measure cell viability, and the 50% growth inhibition (GI50) value of the cell line was calculated using GraphPad Prism software.
# MV4-11 cell line = experiment: Inhibitory activity in cell growth, MTS test, MV4-11; format: cell-based; conditions: Homo sapiens, 72 h, incubation three days
# Description: MV4-11 cell line was incubated in an IMDM medium (10% FBS) at a temperature of 37° C. The incubated cell line was prepared in an amount of 2×10^4 cells/100 μL, and then plated on 96-well plates. The IMDM medium was treated with cascade dilution of the test compounds at a concentration in a range of 1 μM to 0.01 nM at a rate of 1/10. Subsequently, incubation was performed thereon for three days. MTS test was performed to measure cell viability, and the 50% growth inhibition (GI50) value of the cell line was calculated using GraphPad Prism software.
# T1 sequence (P35968 20-1356): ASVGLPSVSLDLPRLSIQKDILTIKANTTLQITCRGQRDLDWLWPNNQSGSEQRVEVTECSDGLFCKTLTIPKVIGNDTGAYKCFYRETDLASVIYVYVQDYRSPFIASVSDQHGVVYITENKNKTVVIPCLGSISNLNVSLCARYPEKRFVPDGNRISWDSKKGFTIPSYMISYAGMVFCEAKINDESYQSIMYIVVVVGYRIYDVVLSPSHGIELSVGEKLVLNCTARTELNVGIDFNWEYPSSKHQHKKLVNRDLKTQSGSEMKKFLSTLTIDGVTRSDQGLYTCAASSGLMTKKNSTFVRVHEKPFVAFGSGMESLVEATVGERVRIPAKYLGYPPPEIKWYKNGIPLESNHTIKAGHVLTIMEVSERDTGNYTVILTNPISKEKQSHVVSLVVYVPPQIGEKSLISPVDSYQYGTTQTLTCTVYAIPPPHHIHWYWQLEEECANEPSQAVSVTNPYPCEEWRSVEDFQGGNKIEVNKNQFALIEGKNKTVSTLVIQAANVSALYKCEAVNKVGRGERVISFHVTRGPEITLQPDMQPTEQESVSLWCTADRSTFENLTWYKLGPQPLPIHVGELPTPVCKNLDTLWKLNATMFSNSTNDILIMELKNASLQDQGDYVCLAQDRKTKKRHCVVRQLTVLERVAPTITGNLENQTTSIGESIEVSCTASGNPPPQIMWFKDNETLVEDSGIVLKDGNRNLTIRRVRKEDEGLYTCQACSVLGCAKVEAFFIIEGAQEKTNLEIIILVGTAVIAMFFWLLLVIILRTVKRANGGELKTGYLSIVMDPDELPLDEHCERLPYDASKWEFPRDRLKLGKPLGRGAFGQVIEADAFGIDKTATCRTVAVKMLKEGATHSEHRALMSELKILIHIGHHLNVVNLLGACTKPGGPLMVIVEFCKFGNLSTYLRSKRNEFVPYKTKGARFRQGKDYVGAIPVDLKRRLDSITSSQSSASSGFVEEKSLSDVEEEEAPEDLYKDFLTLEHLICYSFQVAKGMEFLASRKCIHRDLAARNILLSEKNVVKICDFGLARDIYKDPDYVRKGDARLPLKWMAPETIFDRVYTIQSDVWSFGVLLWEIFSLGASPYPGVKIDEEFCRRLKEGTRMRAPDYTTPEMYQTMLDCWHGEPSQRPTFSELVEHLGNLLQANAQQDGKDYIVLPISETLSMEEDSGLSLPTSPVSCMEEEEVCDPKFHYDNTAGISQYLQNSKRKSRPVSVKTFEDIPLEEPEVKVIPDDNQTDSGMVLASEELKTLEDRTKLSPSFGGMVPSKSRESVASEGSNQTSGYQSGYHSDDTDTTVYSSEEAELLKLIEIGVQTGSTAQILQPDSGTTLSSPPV
smiles,measurement,setting,value
"Cc1ccc2c(-c3nc(Nc4cc(C5CC5)cc(N5CCC(N(C)C)CC5)c4)ncc3Cl)c[nH]c2c1 [Example 6, 5-chloro-N-(3-cyclopropyl-5-(4-(dimethylamino)piperidine-1-yl)phenyl)-4-(6-methyl-1H-indole-3-yl)pyrimidine-2-amine]",inhibition at 0.1 µM,VEGFR2 (KDR) kinase,62%
same,inhibition at 0.1 µM,AXL kinase,49%
same,inhibition at 0.1 µM,NUAK1 (ARK5) kinase,57%
same,inhibition at 0.1 µM,CLK2 kinase,66%
"OCCN1CCN(c2cc(Nc3ncc(Cl)c(-c4c[nH]c5cc(F)ccc45)n3)cc(C3CC3)c2)CC1 [Example 1, 2-(4-(3-((5-chloro-4-(6-fluoro-1H-indole-3-yl)pyrimidine-2-yl)amino)-5-cyclopropylphenyl)piperazine-1-yl)ethane-1-ol]",inhibition at 0.1 µM,VEGFR2 (KDR) kinase,71%
same,inhibition at 0.1 µM,AXL kinase,52%
same,inhibition at 0.1 µM,NUAK1 (ARK5) kinase,84%
same,inhibition at 0.1 µM,CLK2 kinase,99%
same,GI50,RS4-11 cell line,147 nM
"Cc1ccc2c(-c3nc(Nc4cc(C5CC5)cc(N5CCN(CCO)CC5)c4)ncc3Cl)c[nH]c2c1 [Example 2, 2-(4-(3-((5-chloro-4-(6-methyl-1H-indole-3-yl)pyrimidine-2-yl)amino)-5-cyclopropylphenyl)piperazine-1-yl)ethane-1-ol]",inhibition at 0.1 µM,VEGFR2 (KDR) kinase,46%
same,inhibition at 0.1 µM,AXL kinase,56%
same,inhibition at 0.1 µM,NUAK1 (ARK5) kinase,71%
same,inhibition at 0.1 µM,CLK2 kinase,91%
"Cc1ccc2c(-c3nc(Nc4cc(O[C@@H]5CCN(CCO)C5)cc(C5CC5)c4)ncc3Cl)c[nH]c2c1 [Example 53, (R)-2-(3-(3-((5-chloro-4-(6-methyl-1H-indole-3-yl)pyrimidine-2-yl)amino)-5-cyclopropylphenoxy)pyrrolidine-1-yl)ethane-1-ol]",GI50,MV4-11 cell line,1.1 nM
CCc1cc(Nc2ncc(Cl)c(-c3c[nH]c4cc(C)ccc34)n2)cc(OCCN2CCC(O)CC2)c1 [Example 52],GI50,MV4-11 cell line,0.8 nM
"Cc1ccc2c(-c3nc(Nc4cc(CN5CCN(C(C)(C)CO)CC5)cc(C5CC5)c4)ncc3Cl)c[nH]c2c1 [Example 41, 2-(4-(3-((5-chloro-4-(6-methyl-1H-indole-3-yl)pyrimidine-2-yl)amino)-5-cyclopropylbenzyl)piperazine-1-yl)-2-methylpropane-1-ol]",inhibition at 0.1 µM,VEGFR2 (KDR) kinase,63%
same,inhibition at 0.1 µM,AXL kinase,50%
"COc1cc(Nc2ncc(Cl)c(-c3c[nH]c4ccccc34)n2)cc(C(=O)N2CCN(CCO)CC2)c1 [Example 50, (3-((5-chloro-4-(1H-indole-3-yl)pyrimidine-2-yl)amino)-5-methoxyphenyl)(4-(2-hydroxyethyl)piperazine-1-yl)methanone]",GI50,MV4-11 cell line,1.2 nM
"CN(C)C1CCN(c2cccc(Nc3ncc(Cl)c(-c4c[nH]c5ccccc45)n3)c2)C1 (centres unmarked) [Example 30, 5-chloro-N-(3-(3-(dimethylamino)pyrrolidine-1-yl)phenyl)-4-(1H-indole-3-yl)pyrimidine-2-amine]",GI50,MV4-11 cell line,0.8 nM
"Cc1ccc2c(-c3nc(Nc4cc(C5CC5)cc(N5CCC(N(C)C)C5)c4)ncc3Cl)c[nH]c2c1 (centres unmarked) [Example 16, 5-chloro-N-(3-cyclopropyl-5-(3-(dimethylamino)pyrrolidine-1-yl)phenyl)-4-(6-methyl-1H-indole-3-yl)pyrimidine-2-amine]",inhibition at 0.1 µM,VEGFR2 (KDR) kinase,56%
same,inhibition at 0.1 µM,AXL kinase,27%
same,inhibition at 0.1 µM,NUAK1 (ARK5) kinase,67%
same,inhibition at 0.1 µM,CLK2 kinase,77%
"Cc1ccc2c(-c3nc(Nc4cc(C5CC5)cc(N5CCN(C(C)(C)CO)CC5)c4)ncc3Cl)c[nH]c2c1 [Example 17, 2-(4-(3-((5-chloro-4-(6-methyl-1H-indole-3-yl)pyrimidine-2-yl)amino)-5-cyclopropylphenyl)piperazine-1-yl)-2-methylpropane-1-ol]",inhibition at 0.1 µM,VEGFR2 (KDR) kinase,67%
same,inhibition at 0.1 µM,AXL kinase,66%
same,inhibition at 0.1 µM,NUAK1 (ARK5) kinase,72%
same,inhibition at 0.1 µM,CLK2 kinase,93%
"CC(C)(CO)N1CCN(Cc2cc(Nc3ncc(Cl)c(-c4c[nH]c5ccccc45)n3)cc(C3CC3)c2)CC1 [Example 38, 2-(4-(3-((5-chloro-4-(1H-indole-3-yl)pyrimidine-2-yl)amino)-5-cyclopropylbenzyl)piperazine-1-yl)-2-methylpropane-1-ol]",inhibition at 0.1 µM,VEGFR2 (KDR) kinase,99%
same,inhibition at 0.1 µM,AXL kinase,51%
same,inhibition at 0.1 µM,NUAK1 (ARK5) kinase,63%
same,inhibition at 0.1 µM,CLK2 kinase,97%
"COc1ccc2c(-c3nc(Nc4cc(C5CC5)cc(N5CCN(CCO)CC5)c4)ncc3Cl)c[nH]c2c1 [Example 7, 2-(4-(3-((5-chloro-4-(6-methoxy-1H-indole-3-yl)pyrimidine-2-yl)amino)-5-cyclopropylphenyl)piperazine-1-yl)ethane-1-ol]",GI50,RS4-11 cell line,33 nM
